Experimental data published in patent publication US20090239916A1, “NOVEL DRUG DISCOVERY TARGET AND MEDICINE ACTING ON THE SAME” (Reverse Proteomics Research Institute Co., Ltd, priority 2004, published 2009).
Counter-ions that a name gives are not always drawn.

How the values were obtained:
[1] = biological target: T1, recombinant MFP-2 (Homo sapiens, UniProt P51659); assay: Measurement of Kd value between MFP-2 and Intal using Biacore; assay type: binding; conditions: Biacore 3000; Intal-immobilized gold chip; MFP-2 25, 12.5 and 6.25 nM; global fitting
T1 construct: His-tag (N); made in house; host or cells: E. coli (pDEST17, GATEWAY system)
T1 sequence (P51659 1-736): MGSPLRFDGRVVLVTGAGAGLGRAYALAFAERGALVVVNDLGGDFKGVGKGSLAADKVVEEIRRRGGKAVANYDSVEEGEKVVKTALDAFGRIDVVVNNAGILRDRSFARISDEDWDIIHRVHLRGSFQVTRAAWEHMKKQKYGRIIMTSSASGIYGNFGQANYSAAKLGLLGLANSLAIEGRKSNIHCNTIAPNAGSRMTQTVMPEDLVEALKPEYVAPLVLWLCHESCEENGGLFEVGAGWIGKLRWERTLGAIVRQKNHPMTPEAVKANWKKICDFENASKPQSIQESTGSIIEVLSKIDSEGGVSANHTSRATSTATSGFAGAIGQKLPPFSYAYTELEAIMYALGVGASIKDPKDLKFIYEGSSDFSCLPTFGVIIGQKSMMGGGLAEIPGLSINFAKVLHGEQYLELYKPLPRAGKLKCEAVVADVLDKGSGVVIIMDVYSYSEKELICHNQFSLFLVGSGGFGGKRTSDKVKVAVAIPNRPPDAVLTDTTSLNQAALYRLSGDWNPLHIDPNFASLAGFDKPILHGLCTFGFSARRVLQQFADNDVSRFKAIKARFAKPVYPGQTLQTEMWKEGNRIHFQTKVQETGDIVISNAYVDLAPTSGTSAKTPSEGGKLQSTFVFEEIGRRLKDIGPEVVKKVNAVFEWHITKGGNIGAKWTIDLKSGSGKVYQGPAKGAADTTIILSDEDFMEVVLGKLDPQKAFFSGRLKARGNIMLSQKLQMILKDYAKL
Method: The SIA kit Au from Biacore Company (#BR-1004-05) was immersed in Piranha solution (25% H2O2, 75% H2SO4) in a glass dish, and washed with shaking for 3 hours. Next, this chip was washed with Milli-Q Water and ethanol, and allowed to stand overnight as immersed in an ethanol solution (1.5 mM) of 11-amino-1-undecanethiol hydrochloride (Dojindo, #A423). After this was washed with N-methylpyrrolidone (NMP), it was placed in an NMP solution containing N-Fmoc-amido-dPEG4™-acid (50 mM), PyBop (50 mM) and diisopropylethylamine (Pr2Net; 100 mM) and shaken for 16 hours to cause the reaction. After the mixture was washed with NMP, the reaction was allowed to proceed in an acetonitrile (MeCN) solution containing acetic acid (10 mM), HOBt (10 mM) and WSCI (water-soluble carbodiimide; 10 mM) for 5.5 hours. […]
An entry vector was prepared using the GATEWAY system from Invitrogen Company, and recombinant MFP-2 was expressed as a protein with N-terminal His-tag using an E. coli expression system (pDEST17). […]
The Kd value was measured using Biacore 3000. […]
After data were measured, differences from the control were determined using analytical software (BIACORE Company, BIA evaluation ver 4.1) and analyzed by global fitting to calculate the Kd value. As a result, the value was determined to be 0.64 nM.

[2] = biological target: T2, MFP-2 (Rattus norvegicus, UniProt P97852); assay: Binding experiments: compound-immobilized resins with rat brain lysate, SDS-PAGE and MALDI-TOF identification; conditions: first vs second binding experiment with fresh resin, SDS gel
T2 construct: The supernatant thus obtained was used as the lysate; from tissue; host or cells: rat brain
T2 sequence (P97852 1-735): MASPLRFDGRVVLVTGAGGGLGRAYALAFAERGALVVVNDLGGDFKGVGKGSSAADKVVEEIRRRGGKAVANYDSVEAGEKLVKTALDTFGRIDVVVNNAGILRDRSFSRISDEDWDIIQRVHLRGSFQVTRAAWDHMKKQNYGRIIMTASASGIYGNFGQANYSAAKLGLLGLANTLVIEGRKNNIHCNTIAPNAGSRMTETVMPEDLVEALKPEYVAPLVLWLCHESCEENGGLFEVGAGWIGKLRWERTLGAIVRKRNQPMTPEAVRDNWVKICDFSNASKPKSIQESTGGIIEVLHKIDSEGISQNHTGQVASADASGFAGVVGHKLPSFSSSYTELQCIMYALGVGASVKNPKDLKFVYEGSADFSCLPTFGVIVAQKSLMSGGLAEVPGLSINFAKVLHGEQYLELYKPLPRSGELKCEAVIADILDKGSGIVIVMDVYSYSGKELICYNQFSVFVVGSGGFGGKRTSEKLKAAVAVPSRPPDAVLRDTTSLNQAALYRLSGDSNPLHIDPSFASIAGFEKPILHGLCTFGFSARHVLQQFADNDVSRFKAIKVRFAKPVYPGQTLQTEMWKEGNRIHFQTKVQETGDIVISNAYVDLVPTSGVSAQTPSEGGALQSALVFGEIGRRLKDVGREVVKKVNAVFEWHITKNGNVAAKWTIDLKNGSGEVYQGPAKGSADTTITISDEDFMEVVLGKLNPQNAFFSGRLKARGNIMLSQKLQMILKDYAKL
Method: The rat brain (2.4 g) was mixed in a mixed solution A (25 mM Tris-HCl pH 8.0, 0.5% Tween 20, 300 μM DCC (24 ml; N,N-diethyldithiocarbamate sodium)) and prepared as a homogenate, which was then centrifuged at 9,000 rpm for 10 minutes. The centrifugal supernatant was collected and further centrifuged at 50,000 rpm for 30 minutes. The supernatant thus obtained was used as the lysate. Note that all experiments were performed at 4° C. or on ice.
Binding experiments were performed using the immobilizing resins with each test compound immobilized thereon, prepared in Examples 1 to 2, and the rat brain lysate prepared in Example 3(1), per the procedures shown below.
Each resin (10 μl) and lysate (1 ml) were gently shaken at 4° C. for about 1 hour. Thereafter, centrifugal operation was performed, and each supernatant was collected carefully. Then, each supernatant was again mixed with a fresh compound-bound resin (10 μl). At this time, the separated compound-bound resin was gently stored at 4° C. as the resin of the first binding experiment. After the mixture was gently stirred for about 1 hour, centrifugal operation was performed, and the supernatant was removed. […] The sample solution thus obtained was separated using a commercially available SDS gel (BioRad readyGel J, 10% SDS, cat. NO=161-J341), and the SDS gel was analyzed (FIG. 2). […]

Row | SMILES | Kd [1] [nM] | binding of MFP-2 to the compound-immobilized resin [2]
1 | O=C(O)c1cc(=O)c2c(OCC(O)COc3cccc4oc(C(=O)O)cc(=O)c34)cccc2o1 [Intal, disodium salt of 1,3-bis(2-carboxychromon-5-yloxy)-2-hydroxypropane] | 0.64 | specific binding
2 | O=C(Cn1c(=O)sc2ccc(Cl)cc21)N1CCN(CCO)CC1 [tiaramide] |  | specific binding
